Reference: US12097171B2, “Petrolatum-based PHMB compositions and methods of treatment for onychomycosis” (GLOBAL HEALTH SOLUTIONS LLC, priority 2015, dated 2024)
“And” between values parts separate entries of the source, which are not always exact repeats. Equal entries are not always repeated.

Tests used:
[1] = tested on: skin of female albino New Zealand White rabbits; test: Rabbit skin irritation; conditions: per rabbit, 24, 48 and 72 hour observations, two test sites, sulfate
Procedure: Within 24 hours to 4 hours before test application, the backs of female albino New Zealand White rabbits were clipped free of hair, exposing 2 test and 2 control areas on each side of the spine with a size of approximately 15 cm×15 cm. The two test sites are located on the left cranial section and the right caudal section of the dorsal region. The two control sites are located on the left caudal and right cranial section of the dorsal region. FIG. 4 depicts the arrangement of test and control sites. The exposed skin is wiped with alcohol and dried. Rabbits of acceptable skin quality were selected and used for testing.
A 25×25 mm gauze patch saturated with 0.5 mL of 0.9% NaCl is used for the control and applied to the clipped control sites. The patches are secured using hypoallergenic, waterproof, surgical tape over the test and control sites. The animal's trunk is securely wrapped so as to maintain the position of the patches. Patches are left applied for a minimum of four hours.
After patch removal, the test and control sites were then scored for erythema and edema at 1, 24, 48 and 72 hours after patch removal. Only the 24, 48, and 72 hour observations were scored and used for calculations. If no response was expected, testing was conducted using three animals per test article. If irritation was anticipated, one animal was tested initially. If the first animal received a score of 2 or less for either erythema or edema, 2 additional rabbits were used to conclude the test.
This total was divided by the total number of observations. The same was done for the control sites. […] These scores for each animal were added and divided by the total number of animals to give the Primary Irritation Index. […] For any response, the Maximum Irritation Response, the time of onset of the response and the time of maximum response was recorded.
To positively validate the test, 10% sodium dodecyl sulfate (SDS), which is a known dermal irritant, in petroleum jelly was applied to a 2.5 cm×2.5 cm gauze patch. As a negative control, 0.5 mL of 0.9% NaCl was applied to a 2.5 cm×2.5 cm gauze patch. […]

[2] = tested on: human subjects having onychomycosis; conditions: comparison value for standard of care; cited from earlier work

| SMILES | ED (edema) score total ([1]; patch at least four hours) | ER (erythema) score total ([1]; patch at least four hours) | ER + ED = Total [1] | effectiveness of standard of care treatments [2] [%] |
| --- | --- | --- | --- | --- |
| CCCCCCCCCCCCOS(=O)(=O)[O-].[Na+] [10% SDS, sodium dodecyl sulfate] | 19 and 21 and 14 | 21 and 23 and 18 | 40 and 44 and 32 |  |
| CN(C/C=C/C#CC(C)(C)C)Cc1cccc2ccccc12 [Lamisil] |  |  |  | 20 |
